In ChEMBL document CHEMBL1201862, “PubChem BioAssay data set” (2004):
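Cells were grown in 96-well plates and exposed to each compound for 48 hours at five concentrations; endpoints were interpolated linearly between bracketing concentrations, or set to the highest concentration if not reached. The concentration for 50% growth inhibition is given as GI50.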 Calls of active or inactive are those of the source. No stated cut-off is given here; in the data, active = GI50 up to about 1.1 µM and inactive = higher.

Key:
Assay in all cases: growth of human tumour cells (NCI), 48 h
SK-MEL-28 = tested on: SK-MEL-28
MOLT-4 = tested on: MOLT-4
HCC 2998 = tested on: HCC 2998
HOP-62 = tested on: HOP-62
U-251 = tested on: U-251
MDA-MB-231 = tested on: MDA-MB-231
ACHN = tested on: ACHN
SR = tested on: SR
M14 = tested on: M14
MCF7 = tested on: MCF7
NCI-H226 = tested on: NCI-H226
OVCAR-5 = tested on: OVCAR-5
CAKI-1 = tested on: CAKI-1
PC-3 = tested on: PC-3
NCI/ADR-RES = tested on: NCI/ADR-RES
MDA-N = tested on: MDA-N
IGROV-1 = tested on: IGROV-1
OVCAR-8 = tested on: OVCAR-8
DU-145 = tested on: DU-145

| SMILES | GI50 (SK-MEL-28) | GI50 (MOLT-4) | GI50 (HCC 2998) | GI50 (HOP-62) | GI50 (U-251) | GI50 (MDA-MB-231) | GI50 (ACHN) | GI50 (SR) | GI50 (M14) | GI50 (MCF7) | GI50 (NCI-H226) | GI50 (OVCAR-5) | GI50 (CAKI-1) | GI50 (PC-3) | GI50 (NCI/ADR-RES) | GI50 (MDA-N) | GI50 (IGROV-1) | GI50 (OVCAR-8) | GI50 (DU-145) |
| --- | --- | --- | --- | --- | --- | --- | --- | --- | --- | --- | --- | --- | --- | --- | --- | --- | --- | --- | --- |
| O=C(CCCNc1nc(-c2ccccc2)cs1)c1cccs1 | > 100 µM (inactive) | > 100 µM (inactive) | > 100 µM (inactive) | > 100 µM (inactive) | > 100 µM (inactive) | > 100 µM (inactive) | > 100 µM (inactive) | > 100 µM (inactive) | > 100 µM (inactive) | > 100 µM (inactive) | > 100 µM (inactive) | > 100 µM (inactive) | > 100 µM (inactive) | > 100 µM (inactive) | > 100 µM (inactive) | > 100 µM (inactive) | > 100 µM (inactive) | > 100 µM (inactive) |  |
| CCCCCCCCCCCCC1NC(=N)NC2(CCCO2)C1C(=O)OC (stereo unspecified) | 5.52 µM (inactive) | 1.75 µM (inactive) | 6.37 µM (inactive) | 7.18 µM (inactive) | 1.64 µM (inactive) | 4.12 µM (inactive) | 10.4 µM (inactive) | 2.33 µM (inactive) | 3.33 µM (inactive) | 2.9 µM (inactive) | 14.6 µM (inactive) | 8.17 µM (inactive) | 12.8 µM (inactive) | 1.67 µM (inactive) | 17.6 µM (inactive) |  | 2.3 µM (inactive) | 4.68 µM (inactive) | 15.3 µM (inactive) |
| CCOC(=O)CN1C(=O)c2cccc3cc([N+](=O)[O-])cc(c23)C1=O | 2.85 µM (inactive) | 0.373 µM (active) | 4.23 µM (inactive) | 18.2 µM (inactive) | 7.55 µM (inactive) |  | 10.1 µM (inactive) | 0.0525 µM (active) | 3.35 µM (inactive) |  | 10.7 µM (inactive) | 15.5 µM (inactive) |  |  |  |  | 3.97 µM (inactive) | 1.78 µM (inactive) |  |
| O=C(Nc1ccc(Cl)cc1)c1cc(S(=O)(=O)Nc2nnc3c(Cl)cc(C(F)(F)F)cn23)c(S)cc1Cl | > 100 µM (inactive) | 66.8 µM (inactive) | > 100 µM (inactive) | 54.5 µM (inactive) | 56.5 µM (inactive) | 33.8 µM (inactive) | > 100 µM (inactive) | 29.6 µM (inactive) | > 100 µM (inactive) | > 100 µM (inactive) | > 100 µM (inactive) | > 100 µM (inactive) | > 100 µM (inactive) | 83 µM (inactive) | > 100 µM (inactive) |  | > 100 µM (inactive) | > 100 µM (inactive) | > 100 µM (inactive) |
| CC1CCC(=O)C(C(=O)CC2CC(=O)N(C)C(=O)C2)C1 (stereo unspecified) | > 100 µM (inactive) | > 100 µM (inactive) | > 100 µM (inactive) | > 100 µM (inactive) | > 100 µM (inactive) | > 100 µM (inactive) | > 100 µM (inactive) |  | > 100 µM (inactive) | > 100 µM (inactive) | > 100 µM (inactive) | > 100 µM (inactive) | > 100 µM (inactive) | > 100 µM (inactive) | > 100 µM (inactive) |  | > 100 µM (inactive) | > 100 µM (inactive) | > 100 µM (inactive) |
| CN[C@@H](C)[C@H](N)c1ccccc1 | > 100 µM (inactive) | > 100 µM (inactive) | > 100 µM (inactive) |  | > 100 µM (inactive) |  | > 100 µM (inactive) |  | > 100 µM (inactive) |  | > 100 µM (inactive) |  | > 100 µM (inactive) |  |  |  | > 100 µM (inactive) | > 100 µM (inactive) |  |
| CC1(C)[C@@H]2C[C@H]1C(Cc1ccc(C[C@H]3c4cc(-c5ccccn5)ncc4[C@H]4C[C@@H]3C4(C)C)cc1)c1cc(-c3ccccn3)ncc12 (stereo partly specified) | 3.54 µM (inactive) | 0.431 µM (active) | 1.74 µM (inactive) | 0.538 µM (active) | 1.01 µM (active) | 5.35 µM (inactive) | 0.971 µM (active) | 0.561 µM (active) | 1.16 µM (inactive) | 1.89 µM (inactive) |  | 1.46 µM (inactive) | 2.45 µM (inactive) | 0.587 µM (active) | 2.71 µM (inactive) |  | 1.25 µM (inactive) | 0.678 µM (active) | 2.31 µM (inactive) |
| Oc1cc(-c2ccc3ccccc3c2)nc2ncccc12 | 8.63 µM (inactive) | 4.06 µM (inactive) | 9.4 µM (inactive) | 21.7 µM (inactive) |  | 9.02 µM (inactive) | 31.9 µM (inactive) | 2.14 µM (inactive) | 7.13 µM (inactive) | 5.77 µM (inactive) | 23 µM (inactive) | 31.3 µM (inactive) |  |  | 4.4 µM (inactive) |  | 6.4 µM (inactive) | 23 µM (inactive) | 19.9 µM (inactive) |
| NC(=O)CN1C=CCC(C(N)=O)=C1 [CARICOTAMIDE] |  | > 100 µM (inactive) | > 100 µM (inactive) | > 100 µM (inactive) | > 100 µM (inactive) |  | > 100 µM (inactive) |  | > 100 µM (inactive) | > 100 µM (inactive) | > 100 µM (inactive) | > 100 µM (inactive) | > 100 µM (inactive) | > 100 µM (inactive) | > 100 µM (inactive) | > 100 µM (inactive) | > 100 µM (inactive) | > 100 µM (inactive) | > 100 µM (inactive) |
